Test results from patent US6426369B1, “Oxethazaine as antimicrobial agent” (Eisai Co., Ltd., priority 1997, dated 2002).

Key:
Gram-positive bacteria = test: Antimicrobial activity (MIC) of oxethazaine and structure analogues against Gram-positive bacteria; assay type: cell-based
H. pylori [1] = test: Antimicrobial activity test 6: oxethazaine in combination with an antibiotic (AMPC, CAM, RXM), checker board method; assay type: cell-based, Helicobacter pylori; conditions: combined use with oxethazaine; out of 15 strains (AMPC), 21 strains (CAM), 22 strains (RXM)
Excerpt: The effect of combined use with amoxicillin (AMPC), clarithromycin (CAM) or roxithromycin (RXM) was examined in the same manner as in antimicrobial activity test 1, using the checker board method.

H. pylori [2] = test: Antimicrobial activity test 1: anti-H. pylori activity of a single compound (agar plate method); assay type: cell-based, Helicobacter pylori; conditions: Helicobacter pylori, read-out: MIC (growth inhibition)
H. pylori [3] = test: Antimicrobial activity test 3: oxethazaine in combination with compound (II), checker board method; assay type: cell-based; conditions: Helicobacter pylori
Excerpt: In each Table, the concentration of oxethazaine is shown vertically, and the concentration of compound (II) is shown horizontally. In each Table, “−” indicates the inhibited growth of H. pylori (presence of antimicrobial activity), and “+” indicates the growth of H. pylori (absence of antimicrobial activity). […] It is assumed to be present when the MIC of either oxethazaine or PPI is reduced by ½ (when anti-H. pylori activity is not recognized when the concentrations of both oxethazaine and PPI are reduced to ¼, but anti-H. pylori activity is recognized when the concentration of one compound is reduced to ¼ and simultaneously the concentration of the other compound is reduced to ½.).

H. pylori [4] = conditions: PPI alone, 30 mg/day, 8 weeks; cited from earlier work
H. pylori [5] = test: Antimicrobial activity test 2: time for sterilizing H. pylori (viable cell count in Brucella broth); assay type: cell-based, Helicobacter pylori; conditions: NCTC 11637
Experimental: A solution of the test compound was added to Brucella broth containing 5% fetal bovine serum, cultured under slightly aerobic conditions at 37° C., and the vial microbe cell number in Brucella agar containing 7% horse blood was counted at predetermined intervals. The above compound (1) was dissolved in a 1% aqueous solution of […] (DMSO), and the above compound (2) was dissolved in water to prepare a solution of each test compound. “cfu” in Tables and Figures means “colony forming unit”.

[6] = strain 90-397 (first line, r19)
[7] = strain 90-397 (second line, r25)

CCOC(=O)c1ccc(N)cc1 [(A)]
>100 µg/mL: antimicrobial activity (MIC) (Gram-positive bacteria; E. faecalis RIMD 3116001) | antimicrobial activity (MIC) (Gram-positive bacteria; S. aureus FDA 209-P) | antimicrobial activity (MIC) (Gram-positive bacteria; S. epidermidis ATCC 12228)

CCOC(=O)c1ccc(NC(=O)CN2CCCCC2)cc1 [(B)]
>100 µg/mL: antimicrobial activity (MIC) (Gram-positive bacteria; E. faecalis RIMD 3116001) | antimicrobial activity (MIC) (Gram-positive bacteria; S. aureus FDA 209-P) | antimicrobial activity (MIC) (Gram-positive bacteria; S. epidermidis ATCC 12228)

CCN(CC)CCOC(=O)c1ccc(N)cc1.Cl [(C)]
>100 µg/mL: antimicrobial activity (MIC) (Gram-positive bacteria; E. faecalis RIMD 3116001) | antimicrobial activity (MIC) (Gram-positive bacteria; S. aureus FDA 209-P) | antimicrobial activity (MIC) (Gram-positive bacteria; S. epidermidis ATCC 12228)

CC1(C)S[C@@H]2[C@H](NC(=O)[C@H](N)c3ccc(O)cc3)C(=O)N2[C@H]1C(=O)O [Amoxicillin, amoxicillin]
10 strains/: additive effect, number of strains (H. pylori [1])
0 strains/: synergism, number of strains (H. pylori [1])

COCCCOc1ccnc(CSc2nc3ccccc3[nH]2)c1C [Compound (II), 2-[4-(3-methoxypropoxy)-3-methylpyridine-2-yl]methylthio-1H-benzimidazole]
1.56 µg/mL: MIC (H. pylori [2]; NCTC11637, strain NCTC11637) | MIC (H. pylori [2]; NCTC11916, strain NCTC11916) | MIC (H. pylori [2]; strain 89-355) | MIC (H. pylori [2]; strain 89-360 (1)) | MIC (H. pylori [2]; strain 89-360) | MIC (H. pylori [2]; strain 90-384) | MIC (H. pylori [2]; strain 90-388) | MIC (H. pylori [2]; [6]) | MIC (H. pylori [2]; strain 90-407) | MIC (H. pylori [2]; strain 90-428) | MIC (H. pylori [2]; strain EH26) | MIC (H. pylori [3]; NCTC11637, NCTC 11637)
0.8 µg/mL: MIC (H. pylori [2]; NCTC11639, strain NCTC11639) | MIC (H. pylori [2]; strain 89-357) | MIC (H. pylori [2]; strain 90-388 (1)) | MIC (H. pylori [2]; strain 90-390 (1)) | MIC (H. pylori [2]; strain 90-390) | MIC (H. pylori [2]; strain 90-392) | MIC (H. pylori [2]; [7]) | MIC (H. pylori [2]; strain 90-407 (1)) | MIC (H. pylori [2]; strain 90-411) | MIC (H. pylori [2]; strain 90-414 (1)) | MIC (H. pylori [2]; strain 90-414) | MIC (H. pylori [2]; strain EH12) | MIC (H. pylori [2]; strain EH13) | MIC (H. pylori [2]; strain EH16) | MIC (H. pylori [3]; NCTC11639, NCTC 11639)

COc1ccc2[nH]c([S+]([O-])Cc3ncc(C)c(OC)c3C)nc2c1 (stereo not drawn) [Compound (III), omeprazole]
25 µg/mL: MIC (H. pylori [2]; NCTC11639, strain NCTC11639) | MIC (H. pylori [2]; strain 89-355) | MIC (H. pylori [2]; strain 90-388 (1)) | MIC (H. pylori [2]; strain 90-390 (1)) | MIC (H. pylori [2]; strain 90-392) | MIC (H. pylori [2]; [6]) | MIC (H. pylori [2]; [7]) | MIC (H. pylori [2]; strain 90-407) | MIC (H. pylori [2]; strain 90-411) | MIC (H. pylori [2]; strain 90-414 (1)) | MIC (H. pylori [2]; strain EH12) | MIC (H. pylori [2]; strain EH13) | MIC (H. pylori [2]; strain EH16) | MIC (H. pylori [2]; strain EH26)
50 µg/mL: MIC (H. pylori [2]; NCTC11637, strain NCTC11637) | MIC (H. pylori [2]; NCTC11916, strain NCTC11916) | MIC (H. pylori [2]; strain 89-357) | MIC (H. pylori [2]; strain 89-360) | MIC (H. pylori [2]; strain 90-384) | MIC (H. pylori [2]; strain 90-388) | MIC (H. pylori [2]; strain 90-390) | MIC (H. pylori [2]; strain 90-414) | MIC (H. pylori [2]; strain 90-428)

Cc1c(OCC(F)(F)F)ccnc1C[S+]([O-])c1nc2ccccc2[nH]1 (stereo not drawn) [Compound (IV), lansoprazole]
12.5 µg/mL: MIC (H. pylori [2]; NCTC11637, strain NCTC11637)
3.13 µg/mL: MIC (H. pylori [2]; NCTC11639, strain NCTC11639) | MIC (H. pylori [2]; strain 89-355) | MIC (H. pylori [2]; strain 90-384) | MIC (H. pylori [2]; strain 90-388) | MIC (H. pylori [2]; strain 90-390) | MIC (H. pylori [2]; [6]) | MIC (H. pylori [2]; strain 90-407) | MIC (H. pylori [2]; strain 90-411) | MIC (H. pylori [2]; strain EH12) | MIC (H. pylori [2]; strain EH13) | MIC (H. pylori [2]; strain EH16)
5%: degree of efficacy for H. pylori therapy (H. pylori [4])
6.25 µg/mL: MIC (H. pylori [2]; NCTC11916, strain NCTC11916) | MIC (H. pylori [2]; strain 89-357) | MIC (H. pylori [2]; strain 89-360 (1)) | MIC (H. pylori [2]; strain 89-360) | MIC (H. pylori [2]; strain 90-388 (1)) | MIC (H. pylori [2]; strain 90-390 (1)) | MIC (H. pylori [2]; strain 90-392) | MIC (H. pylori [2]; [7]) | MIC (H. pylori [2]; strain 90-407 (1)) | MIC (H. pylori [2]; strain 90-414 (1)) | MIC (H. pylori [2]; strain 90-414) | MIC (H. pylori [2]; strain 90-428) | MIC (H. pylori [2]; strain EH26)

CC1(C)S[C@@H]2[C@H](NC(=O)[C@H](N)c3ccccc3)C(=O)N2[C@H]1C(=O)O [ampicillin]
5.30 log10cfu/ml: Viable microbe cell number (H. pylori [5]; 2 MIC, 3 h)
5.51 log10cfu/ml: Viable microbe cell number (H. pylori [5]; 1 MIC, 3 h)
4.41 log10cfu/ml: Viable microbe cell number (H. pylori [5]; 2 MIC, 6 h)
4.95 log10cfu/ml: Viable microbe cell number (H. pylori [5]; 4 MIC, 3 h)
6.25 log10cfu/ml: Viable microbe cell number (H. pylori [5]; 1 MIC, 0 h) | Viable microbe cell number (H. pylori [5]; 2 MIC, 0 h) | Viable microbe cell number (H. pylori [5]; 4 MIC, 0 h)
2.48 log10cfu/ml: Viable microbe cell number (H. pylori [5]; 4 MIC, 24 h)
4.20 log10cfu/ml: Viable microbe cell number (H. pylori [5]; 4 MIC, 6 h)
3.48 log10cfu/ml: Viable microbe cell number (H. pylori [5]; 1 MIC, 24 h)
4.49 log10cfu/ml: Viable microbe cell number (H. pylori [5]; 1 MIC, 6 h)
3.00 log10cfu/ml: Viable microbe cell number (H. pylori [5]; 2 MIC, 24 h)
